The values that follow come from ChEMBL document CHEMBL3875162, “Synthesis and biological evaluation of new benzimidazole-thiazolidinedione hybrids as potential cytotoxic and apoptosis inducing agents” (Eur J Med Chem, 2016).

A short description of data set [1]: Cytotoxicity against human MDA-MB-231 cells assessed as cell growth inhibition after 48 hrs by MTT assay. Type of data set: functional, cell-based. The settings on record: MDA-MB-231, 48 h.
A short description of data set [2]: Cytotoxicity against human PC3 cells assessed as cell growth inhibition after 48 hrs by MTT assay. Type of data set: functional, cell-based. The settings on record: PC-3, 48 h.
The nature of data set [3]: Cytotoxicity against human DU145 cells assessed as cell growth inhibition after 48 hrs by MTT assay. Type of data set: functional, cell-based. The settings on record: DU-145, 48 h.
The nature of data set [4]: Cytotoxicity against human A549 cells assessed as cell growth inhibition after 48 hrs by MTT assay. Type of data set: functional, cell-based. The settings on record: A549, 48 h. Background: Tetrazolium assays rely on reduction of a dye to a coloured formazan, in cell work by metabolically active cells.
Data set [5] is described as follows: Cytotoxicity against human MCF10A cells assessed as cell growth inhibition after 48 hrs by MTT assay. The format is toxicity, cell-based, MCF-10A.
In data set [6] the test system is A549. Nature of the data set: Selectivity index, ratio of IC50 for human MCF10A cells to IC50 for human A549 cells. Type of data set: functional.

For `O=c1[nH]cc(F)c(=O)[nH]1` [FLUOROURACIL], the concentration for half-maximal inhibition (IC50) (in general, the concentration needed to halve the response being measured) in data set [1] was 36 µM; in data set [2], 45.3 µM; in data set [3], 40.6 µM; in data set [4] it was 30.5 µM.
The corresponding values for `CC(C)n1c(/C=C2\SC(=O)N(CC(=O)N3CCCC3)C2=O)nc2ccccc21` are > 50 µM, > 50 µM, > 50 µM and > 50 µM.
For `CCn1c(/C=C2\SC(=O)N(CC(=O)Nc3nc(-c4ccccc4)cs3)C2=O)nc2ccccc21`, in that order: > 50 µM, > 50 µM, > 50 µM and > 50 µM.
For `CC1CN(C(=O)CN2C(=O)S/C(=C\c3nc4ccccc4n3C(C)C)C2=O)CC(C)O1` (centres undefined), in that order: > 50 µM, > 50 µM, > 50 µM and > 50 µM.
Consider `COc1cc2c(cc1OC)CN(C(=O)CN1C(=O)S/C(=C\c3nc4ccccc4n3C)C1=O)CC2`, for which the IC50 in data set [1] stood at 36 µM; in data set [2], 41.1 µM; in data set [3], 37.5 µM; in data set [4], 13.3 µM. Moreover, the half-maximal inhibitory concentration (IC50) at 48 h in data set [5] is > 100 µM.
For `CC(C)n1c(/C=C2\SC(=O)N(CC(=O)Nc3cc(C(C)(C)C)on3)C2=O)nc2ccccc21`, the IC50 in data set [1], in data set [2], in data set [3] and in data set [4] was > 50 µM in each case.
Turning to `Cn1c(/C=C2\SC(=O)N(CC(=O)N3CCCC3)C2=O)nc2ccccc21`, the IC50 in data set [1], in data set [2], in data set [3] and in data set [4] was > 50 µM throughout.
Take `CCn1c(/C=C2\SC(=O)N(CC(=O)Nc3cc(C(C)(C)C)on3)C2=O)nc2ccccc21`: the IC50 in data set [1] is > 50 µM; in data set [2], > 50 µM; in data set [3] it was > 50 µM; in data set [4], 44.8 µM.
With `CC(C)n1c(/C=C2\SC(=O)N(CC(=O)N3CCCCC3)C2=O)nc2ccccc21`, the IC50 in data set [1] is > 50 µM; in data set [2] it was > 50 µM; in data set [3], 42.2 µM; in data set [4], 28.2 µM.
As to `CCn1c(/C=C2\SC(=O)N(CC(=O)N3CCCC3)C2=O)nc2ccccc21`, the 50% inhibitory concentration (IC50) in data set [1] was > 50 µM; in data set [2], > 50 µM; in data set [3], 45.1 µM; in data set [4], 31.2 µM.
As for `CCn1c(/C=C2\SC(=O)N(CC(=O)N3CC(C)OC(C)C3)C2=O)nc2ccccc21` (centres undefined), the IC50 in data set [1], in data set [2], in data set [3] and in data set [4] was > 50 µM throughout.
Turning to `CCn1c(/C=C2\SC(=O)N(CC(=O)N3CCCCC3)C2=O)nc2ccccc21`, the IC50 in data set [1], in data set [2], in data set [3] and in data set [4] was > 50 µM throughout.
For the compound `CC1CN(C(=O)CN2C(=O)S/C(=C\c3nc4ccccc4n3C)C2=O)CC(C)O1` (centres undefined), the IC50 in data set [1] was > 50 µM; in data set [2] it was > 50 µM; in data set [3], > 50 µM; in data set [4] it was 29.4 µM.
Regarding `COc1cc2c(cc1OC)CN(C(=O)CN1C(=O)S/C(=C\c3nc4ccccc4n3C(C)C)C1=O)CC2`, the IC50 is 30.6 µM in data set [1], > 50 µM in data set [2], 29.7 µM in data set [3] and 20.6 µM in data set [4]. Moreover, the half-maximal inhibitory concentration (IC50) at 48 h in data set [5] was > 100 µM.
With `CCn1c(/C=C2\SC(=O)N(CC(=O)N3CCc4cc(OC)c(OC)cc4C3)C2=O)nc2ccccc21`, the 50% inhibitory concentration (IC50) in data set [1] is > 50 µM; in data set [2], 33.5 µM; in data set [3], > 50 µM; in data set [4], 26.2 µM.
Turning to `Cn1c(/C=C2\SC(=O)N(CC(=O)N3CCOCC3)C2=O)nc2ccccc21`, the IC50 in data set [1] is > 50 µM; in data set [2], > 50 µM; in data set [3], 41.1 µM; in data set [4], 38.5 µM.
Turning to `Cn1c(/C=C2\SC(=O)N(CC(=O)N3CCCCC3)C2=O)nc2ccccc21`, the 50% inhibitory concentration (IC50) in data set [1], in data set [2], in data set [3] and in data set [4] was > 50 µM each time.
In the case of `Cn1c(/C=C2\SC(=O)N(CC(=O)Nc3cc(C(C)(C)C)on3)C2=O)nc2ccccc21`, the IC50 in data set [1] is 33.8 µM; in data set [2] it was > 50 µM; in data set [3], 31.4 µM; in data set [4], 15.3 µM. Besides, in data set [6], the “Ratio IC50” value was determined as 2.5. In data set [5], the IC50 at 48 h was 38.7 µM.
Take `CC(C)n1c(/C=C2\SC(=O)N(CC(=O)N3CCOCC3)C2=O)nc2ccccc21`: the IC50 in data set [1], in data set [2], in data set [3] and in data set [4] was > 50 µM in each case.
For the compound `CCn1c(/C=C2\SC(=O)N(CC(=O)N3CCOCC3)C2=O)nc2ccccc21`, the IC50 in data set [1], in data set [2], in data set [3] and in data set [4] was > 50 µM throughout.
